The values below come from ChEMBL document CHEMBL1155414, “Identification of a urea bioisostere of a triazole oxytocin antagonist” (Bioorg Med Chem Lett, 2010).

The target in one test is T1, Oxytocin receptor (Homo sapiens, UniProt P30559).
T1 sequence (P30559 whole entry): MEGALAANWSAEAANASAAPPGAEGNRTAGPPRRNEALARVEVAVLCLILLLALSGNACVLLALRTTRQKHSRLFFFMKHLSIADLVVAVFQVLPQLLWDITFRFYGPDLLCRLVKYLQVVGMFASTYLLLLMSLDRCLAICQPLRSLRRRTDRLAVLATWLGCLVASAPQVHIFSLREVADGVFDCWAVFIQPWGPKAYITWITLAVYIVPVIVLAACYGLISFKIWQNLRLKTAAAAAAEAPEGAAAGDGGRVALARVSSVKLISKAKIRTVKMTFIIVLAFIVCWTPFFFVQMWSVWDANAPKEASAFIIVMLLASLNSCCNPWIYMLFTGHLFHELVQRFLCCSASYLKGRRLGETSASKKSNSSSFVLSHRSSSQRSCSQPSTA
As to the kind of experiment: Antagonist activity at human oxytocin receptor expressed in CHO cells by beta lactamase assay. It counts as functional, cell-based.

A further test has as its target Vasopressin V1a receptor (Homo sapiens, UniProt P37288). The test is described as follows: Antagonist activity at human vasopressin V1A receptor. Format: functional.
The target of test [1] is Vasopressin V2 receptor (Homo sapiens) (UniProt P30518). The test is described as follows: Antagonist activity at human vasopressin V2 receptor at 10 uM. Format: functional. The arrangement: scale not given: the % may be the effect or the level left.
The target in test [2] is T2, Vasopressin V1b receptor (Homo sapiens) (UniProt P47901).
T2 sequence (whole entry): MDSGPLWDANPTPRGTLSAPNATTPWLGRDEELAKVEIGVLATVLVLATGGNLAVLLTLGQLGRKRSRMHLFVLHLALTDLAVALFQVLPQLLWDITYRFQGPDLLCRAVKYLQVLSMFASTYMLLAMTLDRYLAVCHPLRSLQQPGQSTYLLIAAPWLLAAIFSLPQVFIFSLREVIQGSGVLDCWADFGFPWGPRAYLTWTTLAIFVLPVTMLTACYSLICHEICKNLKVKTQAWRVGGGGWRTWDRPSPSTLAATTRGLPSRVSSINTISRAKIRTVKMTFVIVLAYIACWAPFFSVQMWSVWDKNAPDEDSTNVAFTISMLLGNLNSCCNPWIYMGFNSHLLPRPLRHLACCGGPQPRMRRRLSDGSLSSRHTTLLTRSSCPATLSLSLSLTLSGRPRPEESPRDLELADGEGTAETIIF
The test is described as follows: Antagonist activity at human vasopressin V1B receptor at 10 uM. The arrangement: scale not given: the % may be the effect or the level left. It counts as functional.

Where only a bound is given, the exact number is not on record here.

Chain of Vasopressin V1a receptor (P37288 whole entry): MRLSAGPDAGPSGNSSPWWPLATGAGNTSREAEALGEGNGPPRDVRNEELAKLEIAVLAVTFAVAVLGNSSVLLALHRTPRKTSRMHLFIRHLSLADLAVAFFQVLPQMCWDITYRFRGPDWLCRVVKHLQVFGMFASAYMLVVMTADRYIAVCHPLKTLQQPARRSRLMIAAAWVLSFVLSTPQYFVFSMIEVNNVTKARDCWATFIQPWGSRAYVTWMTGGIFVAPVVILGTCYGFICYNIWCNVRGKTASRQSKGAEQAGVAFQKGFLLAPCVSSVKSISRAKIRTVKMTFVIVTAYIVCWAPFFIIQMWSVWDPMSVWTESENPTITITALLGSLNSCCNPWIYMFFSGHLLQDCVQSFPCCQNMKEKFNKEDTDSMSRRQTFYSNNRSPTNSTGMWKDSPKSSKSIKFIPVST
Chain of Vasopressin V2 receptor (Homo sapiens) (P30518 whole entry): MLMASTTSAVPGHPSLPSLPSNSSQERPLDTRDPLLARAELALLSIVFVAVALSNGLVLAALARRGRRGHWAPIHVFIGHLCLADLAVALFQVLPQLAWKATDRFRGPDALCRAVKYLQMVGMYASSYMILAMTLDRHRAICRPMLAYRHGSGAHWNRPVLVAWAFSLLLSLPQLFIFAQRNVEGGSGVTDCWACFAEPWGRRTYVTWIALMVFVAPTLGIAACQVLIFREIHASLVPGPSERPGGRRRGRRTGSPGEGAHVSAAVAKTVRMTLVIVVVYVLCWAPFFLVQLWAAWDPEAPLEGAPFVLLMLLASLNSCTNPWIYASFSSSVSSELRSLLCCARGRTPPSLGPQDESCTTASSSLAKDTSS

`COc1ccc(-n2c(C)nnc2N2CC(Oc3cc(F)cc(F)c3C)C2)cn1`: the values for the Ki on Oxytocin receptor and at Vasopressin V1a receptor were 41.4 nM and over 4200 nM, respectively.
On to `COc1ccc(-n2c(C)nnc2N2CC(Oc3cccc(F)c3C)C2)cn1`, for which the Ki was 19.7 nM on Oxytocin receptor and over 4200 nM on Vasopressin V1a receptor.
At Oxytocin receptor, `CCN(C(=O)N1CC(Oc2ccc(F)cc2Cl)C1)c1ccc(OC)nc1` registered an inhibition constant (Ki) of 48.4 nM.
On to `COc1ccc(N(C)C(=O)N2CC(Oc3ccc(F)cc3Cl)C2)cn1`, for which the values for the Ki at Oxytocin receptor and at Vasopressin V1a receptor were 67.2 nM and 779 nM, respectively.
At Oxytocin receptor, `CCN(C(=O)N1CC(Oc2ccc(F)cc2C)C1)c1ccc(OC)nc1` yielded a Ki of 43 nM.
Turning to `CCN(C(=O)N1CC(Oc2cccc(F)c2C)C1)c1ccc(OC)nc1`, the Activity in test [1] and in test [2] was under 10% in each case. Also, the Ki at Oxytocin receptor is 13.9 nM; at Vasopressin V1a receptor it was over 4200 nM.
For `CCN(C(=O)N1CC(Oc2cc(F)cc(F)c2C)C1)c1ccc(OC)nc1`, the affinity on Oxytocin receptor corresponds to a Ki of 36.7 nM.
In the case of `COc1ccc(N(C)C(=O)N2CC(Oc3ccc(F)cc3C)C2)cn1`, the Ki at Oxytocin receptor is 112 nM; at Vasopressin V1a receptor it was 1300 nM.
On to `COc1ccc(N(C)C(=O)N2CC(Oc3cccc(F)c3C)C2)cn1`, for which the Ki is 159 nM on Oxytocin receptor and over 4200 nM at Vasopressin V1a receptor.
Taken in the same sequence, the figures for `COc1ccc(N(C)C(=O)N2CC(Oc3cc(F)cc(F)c3C)C2)cn1` were 237 nM and over 4200 nM.

A word on the Ki: it is the equilibrium dissociation constant of an inhibitor or competing ligand from its target.
